Test results reported in patent US20110294735A1, “MECHANISM OF NEUROMEDIN U ACTION AND USES THEREOF” (MERCK SHARP & DOHME CORP., priority 2008, published 2011).
Read-outs that look alike come from different tables or passages of the source. Values belong to the substance of their own block, whether it stands above or below them. Non-standard residues stand in square brackets, D forms with d. No end group written: not given here. hArg = N=C(N)NCCCC[C@H](N)C(=O)O

Columns and labels:
NMUR1 or NMUR2 receptors = assay: Receptor specificity: binding and activation of NMUR1 or NMUR2; format: biochemical; conditions: bind and activate
mice = conditions: cited from earlier work
PYY levels in plasma = assay: Plasma PYY levels in diet-induced obese mice after subcutaneous dosing; format: in vivo
Procedure: (§1) Animal dosing was as follows. Ad libitum fed male diet-induced obese mice were weighed and dosed subcutaneously about 30 minutes prior to the onset of the dark phase of the light cycle. Animals were either not given food or allowed food during treatment. For NMU studies, plasma was collected by cardiac sticks at two or four hours post dose. For studies with the PEGylated NMU analog, plasma was collected at multiple time points up to 18-hours post dose.
(§2) GLP-1 levels in plasma were measured using the Total GLP-1 kit from Meso Scale Discovery, Gaithersburg, Md. Glucagon levels were measured using the Metabolic Multiplex kit from Meso Scale Discovery, Gaithersburg, Md. PYY levels were measured using the PYY Luminex assay from Millipore, Billerica, Mass. The data shown reports of glucagon, PYY and GLP-1 levels as pg/mL (all values are reported as mean±SEM and data was analyzed using a two-tailed unpaired Student's t test; p values ≦0.05 were reported as significant and are denoted with an asterisk).
(§3) Diet-induced obese mice (DIO) were purchased from Taconic Farms. NMUR1 knockout (Nmur1−/−) mice were generated using standard homologous recombination techniques. U.S. Published Application No. 20080172752 discloses NMUR1 knockout mice. NMUR2 knockout (Nmur2−/−) mice were licensed from Deltagen Inc., San Mateo, Calif. and subsequently transferred to Taconic Farms. Mice were individually housed in Tecniplast cages in a conventional SPF facility. Mice were initially maintained on a regular chow diet and then early in their life were switched to a high fat diet (D12492: 60% kcal from fat; Research Diets, Inc., New Brunswick, N.J.) with ad libitum access to water in a 12-hour light/12-hour dark cycle.

[1] = tested on: total GLP-1 levels in plasma; assay: Plasma total GLP-1 levels in diet-induced obese mice after subcutaneous dosing; format: in vivo; conditions: for total GLP-1 levels: 10 mpk
Procedure: as §1, §2, §3

GLP-1 levels in plasma = assay: Plasma GLP-1 levels in wild-type, Nmur1-deficient and Nmur2-deficient mice; format: in vivo; conditions: four-hours post dose, absence of food (FIG. 3)
Procedure: as §2, §3
Plasma was collected from wild-type, Nmur1-deficient and Nmur2-deficient mice four-hours post dose in the absence of food.

plasma glucose levels = assay: Oral glucose tolerance test, plasma glucose; format: in vivo, mice; conditions: 15 minutes after oral glucose tolerance test (FIG. 6A)
Procedure: (§4) The Oral Glucose Tolerance Test (OGTT) was performed as follows: Ad libitum fed male diet-induced obese mice were weighed and dosed subcutaneously about 30 minutes prior to the onset of the dark phase of the light cycle. Animals were not given food after dosing. The next day, approximately 18-hours after dosing, basal glucose levels were measured from animals by tail blood. Animals were then administered a glucose dose (1.5 g/kg) by oral gavage and fifteen minutes after dosing with glucose, plasma was collected to evaluate glucagon and glucose levels.
as §3

[2] = tested on: glucagon levels in plasma; assay: Oral glucose tolerance test, plasma glucagon; format: in vivo, mice; conditions: 15 minutes after oral glucose tolerance test (FIG. 6B)
Procedure: as §4, §2
Diet-induced obese mice (DIO) were purchased from Taconic Farms. NMUR1 knockout (Nmur1−/−) mice were generated using standard homologous recombination techniques. U.S. Published Application No. 20080172752 discloses NMUR1 knockout mice. […]

Nmur1 knockout mice = assay: Food intake and weight gain in Nmur1 knockout mice after peripheral administration; format: in vivo; conditions: administered peripherally

receptor specificity (NMUR1 / NMUR2) (NMUR1 or NMUR2 receptors): bispecific
Substance: FALFRPRN-CONH2 (FALFRPRN-NH2)

receptor specificity (NMUR1 / NMUR2) (NMUR1 or NMUR2 receptors): bispecific
Substance: FRVDEEFQSPFASQSRGFWLFRP-(Harg)-N-CONH2 (FRVDEEFQSPFASQSRGFWLFRP[hArg]N-NH2; N-terminus assumed; SMILES CC(C)C[C@H](NC(=O)[C@H](Cc1c[nH]c2ccccc12)NC(=O)[C@H](Cc1ccccc1)NC(=O)CNC(=O)[C@H](CCCNC(=N)N)NC(=O)[C@H](CO)NC(=O)[C@H](CCC(N)=O)NC(=O)[C@H](CO)NC(=O)[C@H](C)NC(=O)[C@H](Cc1ccccc1)NC(=O)[C@@H]1CCCN1C(=O)[C@H](CO)NC(=O)[C@H](CCC(N)=O)NC(=O)[C@H](Cc1ccccc1)NC(=O)[C@H](CCC(=O)O)NC(=O)[C@H](CCC(=O)O)NC(=O)[C@H](CC(=O)O)NC(=O)[C@@H](NC(=O)[C@H](CCCNC(=N)N)NC(=O)[C@@H](N)Cc1ccccc1)C(C)C)C(=O)N[C@@H](Cc1ccccc1)C(=O)N[C@@H](CCCNC(=N)N)C(=O)N1CCC[C@H]1C(=O)N[C@@H](CCCCNC(=N)N)C(=O)N[C@@H](CC(N)=O)C(N)=O)

Substance: rat NMU-23: full length NMU, a 23-mer (NMU-23) in rats and mice (YKVNEYQGPVAPSGGFFLFRPRN; ends and bridges not checked; UniProt P12760 144-166, looked up) [reference compound]
body weight, body composition, body temperature and food intake (mice; chronic central administration, Nmur2-/- transgenic mice): largely unaffected
body weight, body composition and food intake (mice; chronic peripheral administration, Nmur1-/- transgenic mice): largely unaffected

receptor specificity (NMUR1 / NMUR2) (NMUR1 or NMUR2 receptors): bispecific
Substance: FRVDEEFQSPFASQSRGFWLFRA-(Harg)-N-CONH2 (FRVDEEFQSPFASQSRGFWLFRA[hArg]N-NH2; N-terminus assumed; SMILES CC(C)C[C@H](NC(=O)[C@H](Cc1c[nH]c2ccccc12)NC(=O)[C@H](Cc1ccccc1)NC(=O)CNC(=O)[C@H](CCCNC(=N)N)NC(=O)[C@H](CO)NC(=O)[C@H](CCC(N)=O)NC(=O)[C@H](CO)NC(=O)[C@H](C)NC(=O)[C@H](Cc1ccccc1)NC(=O)[C@@H]1CCCN1C(=O)[C@H](CO)NC(=O)[C@H](CCC(N)=O)NC(=O)[C@H](Cc1ccccc1)NC(=O)[C@H](CCC(=O)O)NC(=O)[C@H](CCC(=O)O)NC(=O)[C@H](CC(=O)O)NC(=O)[C@@H](NC(=O)[C@H](CCCNC(=N)N)NC(=O)[C@@H](N)Cc1ccccc1)C(C)C)C(=O)N[C@@H](Cc1ccccc1)C(=O)N[C@@H](CCCNC(=N)N)C(=O)N[C@@H](C)C(=O)N[C@@H](CCCCNC(=N)N)C(=O)N[C@@H](CC(N)=O)C(N)=O)

Substance: FRVDEEFQSPFASQSRGYFLFRPRN-CONH2 (FRVDEEFQSPFASQSRGYFLFRPRN-NH2) [NMU]
increase of PYY levels (PYY levels in plasma; 10 mpk, four-hours post dose, obese mice (FIG. 1A)): about two-fold
PYY levels (PYY levels in plasma; 10 mpk, four-hours post dose, obese mice (FIG. 1B)): increased
PYY levels (PYY levels in plasma; 10 mpk, two-hours post dose, obese mice (FIG. 1B)): increased
total GLP-1 levels ([1]; four-hours post dose, obese mice (FIG. 2A)): increased
total GLP-1 ([1]; chronic treatment 3 mpk/day subcutaneously for two weeks (FIG. 2B)): significant increase
GLP-1 levels (GLP-1 levels in plasma; Nmur1-deficient mice): not
GLP-1 levels (GLP-1 levels in plasma; Nmur2-deficient mice): Increased
GLP-1 levels (GLP-1 levels in plasma; wild-type mice): Increased
food intake (mice; acute administration, centrally or peripherally, mice): reduce
core body temperature (mice; acute peripheral administration, mice): dose-dependently increases
anorectic actions (mice; centrally administered, NMUR1-deficient (Nmur1-/-) mice): present
anorectic actions (mice; centrally administered, NMUR2-deficient (Nmur2-/-) mice): absent
food intake, body weight and adiposity (mice; chronic administration, centrally or peripherally, mice): reduces
anorectic actions (mice; peripherally administered, Nmur1-/- mice): absent
anorectic actions (mice; peripherally administered, Nmur2-/- mice): present

Substance: Ac-C2FRVDEEFQSPFASQSRGYFLFRPRN-CONH2 (Ac-C((PEG)2 40 kDa)FRVDEEFQSPFASQSRGYFLFRPRN-NH2; also: PEG size not given here) [NMU12, PEGylated NMU analog; differs from NMU9 by the source of the PEG]
PYY levels (PYY levels in plasma; 10 mpk, 18-hr post dose, absence of food (FIG. 4B)): did not increase
PYY levels in plasma (PYY levels in plasma; 18-hours post dose, presence of food, obese mice (FIG. 4A)): dose-dependently increased
total GLP-1 levels ([1]; 18-hours post dose, absence of food (FIG. 5B)): increased
total GLP-1 levels ([1]; 18-hours post dose, presence of food (FIG. 5A)): increased
plasma glucose levels (plasma glucose levels; 0.1 mpk): reduced
plasma glucose levels (plasma glucose levels; 1 mpk): reduced
glucagon levels ([2]; 0.1 mpk): reduced
glucagon levels ([2]; 1 mpk): reduced
food intake (Nmur1 knockout mice; Nmur1 knockout mice): reduce food intake
weight gain (Nmur1 knockout mice; Nmur1 knockout mice): reduce weight gain
crossing the blood-brain barrier (Nmur1 knockout mice; inferred from effect in Nmur1 knockout mice): able to cross the blood-brain barrier
